Patent publication US10017463B2, “Inhibitors of deubiquitinating proteases” (Brandeis University, priority 2014, dated 2018)
Read-outs that look alike come from different tables or passages of the source.

Key:
3T3 = assay: Proliferation assay, 3T3; settings: Mus musculus, NIH3T3, 72 h, read-out: EC50 growth inhibition 3T3
Description: Proliferation assays for adherent cells were conducted by plating cells at 5%-10% confluence in 96 well plates together with compound or 0.1% DMSO. Cells were allowed to grow for 48 h and then Alamar Blue® was added and number of cells was measured by fluorescence on a microplate reader.

USP9x [1] = target: T1, USP9x (Homo sapiens, UniProt Q93008); assay: HA-Ubiquitin-Vinylsulfone activity profiling in K562 lysates; assay type: biochemical
T1 construct: Lysate labeling assay on untransfected cells; endogenous in cells; host or cells: K562
T1 sequence (Q93008 whole entry): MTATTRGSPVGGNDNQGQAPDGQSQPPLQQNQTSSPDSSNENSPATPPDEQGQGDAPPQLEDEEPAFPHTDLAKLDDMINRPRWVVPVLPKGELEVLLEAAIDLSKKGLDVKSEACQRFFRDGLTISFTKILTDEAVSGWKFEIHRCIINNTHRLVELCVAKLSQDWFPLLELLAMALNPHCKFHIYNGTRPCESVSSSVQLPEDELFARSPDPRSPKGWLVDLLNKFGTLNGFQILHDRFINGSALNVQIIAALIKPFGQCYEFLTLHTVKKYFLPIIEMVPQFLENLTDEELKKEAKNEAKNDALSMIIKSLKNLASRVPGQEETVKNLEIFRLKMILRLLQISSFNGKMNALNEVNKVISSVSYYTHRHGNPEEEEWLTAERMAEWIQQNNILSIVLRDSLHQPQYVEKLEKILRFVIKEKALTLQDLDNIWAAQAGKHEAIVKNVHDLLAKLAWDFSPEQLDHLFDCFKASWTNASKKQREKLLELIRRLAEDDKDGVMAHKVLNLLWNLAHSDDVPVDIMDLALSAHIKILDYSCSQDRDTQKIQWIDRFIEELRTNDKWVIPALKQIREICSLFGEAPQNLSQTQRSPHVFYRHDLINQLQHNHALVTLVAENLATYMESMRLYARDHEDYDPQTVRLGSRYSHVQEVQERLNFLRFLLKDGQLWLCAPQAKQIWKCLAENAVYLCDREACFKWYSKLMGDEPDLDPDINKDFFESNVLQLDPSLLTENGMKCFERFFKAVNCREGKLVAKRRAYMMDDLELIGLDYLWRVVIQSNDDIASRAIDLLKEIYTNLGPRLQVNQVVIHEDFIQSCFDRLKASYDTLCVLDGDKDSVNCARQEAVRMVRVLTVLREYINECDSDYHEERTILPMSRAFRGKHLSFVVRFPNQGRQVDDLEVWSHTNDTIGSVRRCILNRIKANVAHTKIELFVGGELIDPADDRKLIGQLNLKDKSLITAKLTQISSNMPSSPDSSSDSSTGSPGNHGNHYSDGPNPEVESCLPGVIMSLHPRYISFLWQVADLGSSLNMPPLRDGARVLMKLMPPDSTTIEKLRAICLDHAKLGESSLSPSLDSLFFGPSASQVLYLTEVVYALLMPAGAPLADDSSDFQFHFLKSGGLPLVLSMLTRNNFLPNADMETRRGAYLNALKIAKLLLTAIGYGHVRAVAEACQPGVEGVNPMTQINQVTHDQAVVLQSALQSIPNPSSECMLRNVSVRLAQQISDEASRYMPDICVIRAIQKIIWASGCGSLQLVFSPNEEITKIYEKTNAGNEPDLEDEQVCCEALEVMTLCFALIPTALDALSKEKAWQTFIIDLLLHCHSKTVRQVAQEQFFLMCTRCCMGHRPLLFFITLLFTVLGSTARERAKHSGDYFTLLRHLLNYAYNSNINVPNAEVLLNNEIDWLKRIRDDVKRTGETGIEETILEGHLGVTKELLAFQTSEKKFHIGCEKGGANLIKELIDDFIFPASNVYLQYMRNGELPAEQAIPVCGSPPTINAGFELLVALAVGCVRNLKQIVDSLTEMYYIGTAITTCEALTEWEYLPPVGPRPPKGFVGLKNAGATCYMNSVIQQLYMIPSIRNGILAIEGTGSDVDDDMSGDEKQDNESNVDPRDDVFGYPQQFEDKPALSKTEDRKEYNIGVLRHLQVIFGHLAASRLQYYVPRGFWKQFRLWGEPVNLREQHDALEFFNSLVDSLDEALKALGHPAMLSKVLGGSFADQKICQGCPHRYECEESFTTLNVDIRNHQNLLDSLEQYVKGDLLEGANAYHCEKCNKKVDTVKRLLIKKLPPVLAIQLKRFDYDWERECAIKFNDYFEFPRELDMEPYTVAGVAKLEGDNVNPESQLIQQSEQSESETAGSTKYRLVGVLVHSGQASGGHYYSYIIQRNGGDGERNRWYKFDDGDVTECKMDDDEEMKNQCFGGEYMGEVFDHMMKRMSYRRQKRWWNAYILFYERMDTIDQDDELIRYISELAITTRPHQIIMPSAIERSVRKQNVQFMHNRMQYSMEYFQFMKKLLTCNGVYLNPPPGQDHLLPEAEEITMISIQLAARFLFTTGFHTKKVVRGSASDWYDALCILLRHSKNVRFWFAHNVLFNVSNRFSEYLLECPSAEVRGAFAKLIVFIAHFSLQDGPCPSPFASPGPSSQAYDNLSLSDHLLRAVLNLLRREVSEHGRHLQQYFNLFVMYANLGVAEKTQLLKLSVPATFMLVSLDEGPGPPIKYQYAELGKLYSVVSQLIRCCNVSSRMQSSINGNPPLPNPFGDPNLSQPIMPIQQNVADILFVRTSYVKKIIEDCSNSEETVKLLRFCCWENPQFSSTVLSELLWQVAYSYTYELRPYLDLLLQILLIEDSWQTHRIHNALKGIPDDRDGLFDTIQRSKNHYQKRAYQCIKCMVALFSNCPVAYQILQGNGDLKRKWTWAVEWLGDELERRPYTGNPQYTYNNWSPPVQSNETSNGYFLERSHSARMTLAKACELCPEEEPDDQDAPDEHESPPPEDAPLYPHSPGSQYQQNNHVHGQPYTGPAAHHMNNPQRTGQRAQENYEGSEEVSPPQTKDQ
Description: Panel B is an image of an immunoblot showing the titration of TCM23 and TCM28 in K562 lysates. Panel C is a plot showing the quantitation of band corresponding to USP9x in panel B. Panel D is an image of an immunoblot showing the titration of WP1130 in K562 lysates. Panel E is a plot showing the quantification of the efficacy of ITCs for the inhibition of USP9x in K562 lysates (see also Table 2).
[…] After this time HA-Ub-VS (1.5 μM) was added and incubated for 15 min. After this time reaction mixture (15 μL) was removed and quenched in 2× (final concentration) reducing Laemeli buffer. The reaction mixtures were heated to 37° C. for 10 min prior to analysis by western blot for HA.

K562 cells = assay: Annexin V-FITC/PI apoptosis assay, K562; assay type: cell-based; settings: 15 or 30 μM, 24 h
Description: (§1) (each point is shown as mean+/−s.d. of 2 replicates). Panel A is a bar graph showing the data for HeLa cells (30 μM); Panel B is a bar graph showing the data for K562 (30 μM); Panel C is a bar graph showing the data for K562 (15 μM).
(§2) Since K562 cells are dependent upon Bcr-Abl for survival, it was predicted that these cells would also be susceptible to TU compounds. However, K562 cells gave a very weak signal in the Alamar Blue® assay. In lieu of the Alamar Blue assay, an apoptosis assay was used to show susceptibility. This assay uses fluorescein-modified Annexin V to detect phosphatidyl serine (PS) on the cell surface. See Vermes et al., J. Immon. Meth. 184, 39-51 (1995). PS is typically expressed on the inner leaflet of the cell membrane. However in the early stages of apoptosis, PS translocates to the outer leaflet and can be bound by Annexin V. Thus, during apoptosis cells will become greener in the presence of Annexin V-Fluorescine.

K48-linked ubiquitin = K48-linked ubiquitin immunoblot in BaF3/p210 cells; assay type: cell-based, murine; settings: 4 h, various concentrations
Description: Panel A is an image of an immunoblot showing BaF3/p210 cells were treated with various concentrations of TU46 for 4 h, and then whole cell lysates were blotted for K48-linked ubiquitin and tubulin. Panel B is an immunoblot showing same lysates as in Panel A were blotted for Bcr-Abl.
The K48-linked ubiquitin levels were also probed in these lysates. […] The increase in K48-linked ubiquitin coincided with the loss of Bcr-Abl (FIG. 8, Panel B). Since USP9x is known to deubiquitinate K48-linked polyubiquitin chains, it is possible that this increase in K48-linked ubiquitin is due to USP9x inhibition. See Park et al., PNAS 110, 9433-9438 (2013).

BaF3 parent = assay: Growth inhibition assay, BaF3 parent; assay type: cell-based; settings: at higher concentrations than BaF3/p210
Excerpt: MCL1 is required to sustain growth of many transformed cells and is also regulated by USP9x. […] These findings help to explain why these compounds are toxic to Bcr-Abl independent cancer lines, especially BaF3.

HeLa cells = assay: Annexin V-FITC/PI apoptosis assay, HeLa; assay type: cell-based; settings: 15 or 30 μM, 24 h
Description: as §1, §2

G76VUb-GFP in COS1 cells = assay: UbG76V-GFP proteasome assay in COS1 cells; assay type: cell-based
Description: COS1 cells at approx. 75% confluence in a 48 well plate were transiently transfected with a plasmid encoding G76VUb-GFP using Mirus 2020 reagent. After this time media with either compound in DMSO or 1% DMSO was added to the cells and the cells were incubated for 8 h. After this time, cells were trypsinized, diluted with 1% FBS in PBS (FACS buffer) then centrifuged at 700 g. After this time cells on ice were treated with FACS buffer containing propidium iodide (0.05 mg/mL). The GFP (indicating proteasome activity) and red fluorescence (dye exclusion showing acute toxicity) were subsequently measured by FACS.

[2] = target: purified recombinant USP9x (Homo sapiens, UniProt Q93008); assay: Purified recombinant USP9x, Cy5-Ub-VME activity profiling; assay type: biochemical; settings: for inhibition of USP9x in presence of USP7CD: at 12.5 μM; for fluorescent signal of USP9x-(Cy5-Ub-VME) complex: preincubation at 50 or 25 μM
purified recombinant USP9x, sequence (Q93008 whole entry, species assumed): as the sequence (Q93008 whole entry) above
Description: Panel A is an image showing that purified recombinant USP9x (7 nM) was treated with the stated compound at 50 μM for 19 min prior to addition of Cy5-Ub-VME for 5 min, then the mixture was resolved by S.D.S-PAGE and analyzed on a typhoon imager. Panel B is an image of an immunoblot showing purified recombinant USP9x (7 nM) and USP7CD (20 nM) were treated with the stated compound at the stated concentration for 19 min prior to addition of Cy5-Ub-VME for 5 min then the mixture was resolved by S.D.S-PAGE and analyzed on a Typhoon imager.

[3] = tested on: DUBs other than USP9x, most notably UCHL5; assay: HA-Ubiquitin-Vinylsulfone activity profiling, other DUBs; assay type: biochemical; settings: for inhibition of other DUBs other than USP9x: at 85 μM; for inhibition of other DUBs: below 25 μM
Description: Lysate labeling assay on untransfected cells (1.5 mg/mL lysate lysed using a Dounce homogenizer, 10 strokes, in 75 mM potassium phosphate pH 7.6, 150 mM NaCl, 0.75 mM BME) was run with the stated concentration of inhibitor (or 1% DMSO control) for 30 min. After this time HA-Ub-VS (1.5 μM) was added and incubated for 15 min. After this time reaction mixture (15 μL) was removed and quenched in 2× (final concentration) reducing Laemeli buffer. The reaction mixtures were heated to 37° C. for 10 min prior to analysis by western blot for HA. […] EC50s calculated by this method were in agreement with those found in the HA-blot.

USP9x [4] = target: T2, USP9x (Mus musculus, UniProt P70398); assay: Cy5-Ub-VME profiling of BaF3 lysates; assay type: biochemical, murine; settings: BaF3 lysate, approximately 22 bands
T2 construct: endogenous in cells; host or cells: BaF3
T2 sequence (P70398 whole entry): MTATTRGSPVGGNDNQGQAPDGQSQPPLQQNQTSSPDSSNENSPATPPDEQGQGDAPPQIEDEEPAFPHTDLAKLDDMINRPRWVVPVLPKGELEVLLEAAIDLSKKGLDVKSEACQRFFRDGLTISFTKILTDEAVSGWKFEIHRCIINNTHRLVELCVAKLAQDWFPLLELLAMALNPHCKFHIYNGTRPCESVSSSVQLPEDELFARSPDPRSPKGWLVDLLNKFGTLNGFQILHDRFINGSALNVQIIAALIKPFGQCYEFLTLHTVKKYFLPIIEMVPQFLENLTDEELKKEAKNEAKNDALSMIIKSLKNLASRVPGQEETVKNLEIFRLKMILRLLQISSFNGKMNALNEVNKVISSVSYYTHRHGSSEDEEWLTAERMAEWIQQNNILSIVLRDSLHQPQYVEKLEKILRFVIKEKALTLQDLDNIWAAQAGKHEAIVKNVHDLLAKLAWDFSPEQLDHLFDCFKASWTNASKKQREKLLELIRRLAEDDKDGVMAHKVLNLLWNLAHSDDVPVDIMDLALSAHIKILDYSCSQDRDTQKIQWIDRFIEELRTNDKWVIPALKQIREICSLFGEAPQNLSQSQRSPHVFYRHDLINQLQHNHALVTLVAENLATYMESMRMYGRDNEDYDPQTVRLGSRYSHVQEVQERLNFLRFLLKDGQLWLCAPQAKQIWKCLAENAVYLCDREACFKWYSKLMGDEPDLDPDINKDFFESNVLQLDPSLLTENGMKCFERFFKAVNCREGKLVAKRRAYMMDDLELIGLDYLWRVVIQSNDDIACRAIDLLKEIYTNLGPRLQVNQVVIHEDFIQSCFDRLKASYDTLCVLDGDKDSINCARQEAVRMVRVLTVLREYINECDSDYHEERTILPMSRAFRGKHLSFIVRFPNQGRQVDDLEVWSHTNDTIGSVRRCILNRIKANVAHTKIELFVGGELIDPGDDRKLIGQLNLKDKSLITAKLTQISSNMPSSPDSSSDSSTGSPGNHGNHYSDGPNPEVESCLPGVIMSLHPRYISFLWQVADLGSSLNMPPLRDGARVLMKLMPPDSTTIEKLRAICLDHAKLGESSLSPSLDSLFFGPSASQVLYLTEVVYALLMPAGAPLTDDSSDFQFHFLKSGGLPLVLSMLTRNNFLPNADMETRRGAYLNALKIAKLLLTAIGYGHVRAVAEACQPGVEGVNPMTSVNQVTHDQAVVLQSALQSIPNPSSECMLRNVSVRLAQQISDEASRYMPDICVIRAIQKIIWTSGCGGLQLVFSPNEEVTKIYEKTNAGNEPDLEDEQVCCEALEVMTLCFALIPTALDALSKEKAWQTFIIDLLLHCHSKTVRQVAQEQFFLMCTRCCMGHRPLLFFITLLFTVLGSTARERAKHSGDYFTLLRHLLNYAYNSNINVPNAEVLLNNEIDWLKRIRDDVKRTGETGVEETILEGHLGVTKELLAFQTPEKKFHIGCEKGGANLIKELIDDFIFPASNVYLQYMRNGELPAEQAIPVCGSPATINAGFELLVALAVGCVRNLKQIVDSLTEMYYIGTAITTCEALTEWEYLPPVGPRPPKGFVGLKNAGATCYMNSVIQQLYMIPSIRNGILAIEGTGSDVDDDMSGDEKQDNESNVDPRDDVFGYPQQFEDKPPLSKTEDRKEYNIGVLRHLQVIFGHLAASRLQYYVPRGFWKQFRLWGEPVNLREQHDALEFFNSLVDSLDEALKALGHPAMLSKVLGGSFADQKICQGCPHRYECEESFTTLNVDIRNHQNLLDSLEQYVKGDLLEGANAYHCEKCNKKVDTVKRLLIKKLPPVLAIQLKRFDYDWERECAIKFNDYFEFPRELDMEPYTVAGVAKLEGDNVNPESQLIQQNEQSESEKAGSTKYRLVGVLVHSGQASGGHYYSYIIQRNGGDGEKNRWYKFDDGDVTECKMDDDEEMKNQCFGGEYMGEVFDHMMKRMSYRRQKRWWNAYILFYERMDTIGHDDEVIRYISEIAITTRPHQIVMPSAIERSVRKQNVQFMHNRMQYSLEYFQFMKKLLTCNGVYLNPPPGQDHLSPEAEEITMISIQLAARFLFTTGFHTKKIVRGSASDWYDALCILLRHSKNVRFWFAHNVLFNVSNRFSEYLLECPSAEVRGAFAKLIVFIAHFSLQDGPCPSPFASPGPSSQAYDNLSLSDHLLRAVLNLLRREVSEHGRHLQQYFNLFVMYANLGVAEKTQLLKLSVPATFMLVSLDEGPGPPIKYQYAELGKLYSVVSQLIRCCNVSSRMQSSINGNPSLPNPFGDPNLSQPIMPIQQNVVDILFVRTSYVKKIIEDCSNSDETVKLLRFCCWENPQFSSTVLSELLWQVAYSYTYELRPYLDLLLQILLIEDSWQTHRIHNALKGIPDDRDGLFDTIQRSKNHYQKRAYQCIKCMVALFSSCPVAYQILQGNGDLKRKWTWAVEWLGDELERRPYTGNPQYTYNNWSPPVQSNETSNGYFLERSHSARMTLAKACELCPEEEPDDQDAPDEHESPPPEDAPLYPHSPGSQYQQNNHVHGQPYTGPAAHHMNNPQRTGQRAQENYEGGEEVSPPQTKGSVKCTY
Description: Panel A is an image of an immunoblot showing representative scans of lysates treated with compound for 15 min then Cy5-Ub-VME. Panel B is a plot of the bands in each lane using Image J processing and analysis software.
Using Image J, the individual lanes from the lysates were plotted as a function of TU50 concentration.

leukemic cell lines = assay: NCI-60 human tumor cell line screen; assay type: cell-based; settings: 48 h treatment
Excerpt: For example, a value of 100 means no growth inhibition and a value of 40 indicates 60% growth inhibition. A value of ‘0’ indicates complete growth inhibition.

[5] = HA-Ub-VS profiling, values in text, read-out: EC50 for USP9x
[6] = inhibition of USP9x in K562 lysates, data from FIG. 1, read-out: EC50

| Structure (SMILES) | EC50 (3T3) | inhibition of USP9x (USP9x [1]) | EC50 (USP9x [1]; [5]) | EC50 (USP9x [1]; [6]) | apoptosis and necrosis in K562 (K562 cells) | K48-linked ubiquitin level (K48-linked ubiquitin) | susceptibility of BaF3 parent (growth inhibition) (BaF3 parent) | apoptosis in HeLa (HeLa cells) | inhibition of the proteasome in G76VUb-GFP assay (G76VUb-GFP in COS1 cells; COS1, 8 h) | GFP signal (G76VUb-GFP in COS1 cells; COS1, at 50 μM) | inhibition of USP9x in presence of USP7CD [2] | fluorescent signal of USP9x-(Cy5-Ub-VME) complex [2] | inhibition of other DUBs other than USP9x [3] | inhibition of other DUBs [3] | selectivity for USP9x among Cy5-Ub-VME reactive bands (USP9x [4]) | GFP signal (G76VUb-GFP in COS1 cells; COS1, 8 h) | lethality in NCI-60 screen (leukemic cell lines) |
| --- | --- | --- | --- | --- | --- | --- | --- | --- | --- | --- | --- | --- | --- | --- | --- | --- | --- |
| CC(C)(C)OC(=O)NCCc1ccc(N=C=S)cc1 [TU46] | > 110 µM | significant inhibition | 6 to 12 µM | 12 µM | large increase in both apoptosis and necrosis | increases K48-linked ubiquitin | susceptible | no apoptosis was detected | did not inhibit | slight increase in GFP signal | strongly inhibited | oblation of the fluorescent signal | weak inhibition | little inhibition | selective for USP9x | – | – |
| O=C(NCc1ccc(N=C=S)cc1)OCc1ccccc1 [TU49] | > 110 µM | – | – | – | large increase in both apoptosis and necrosis | – | – | no apoptosis was detected | did not inhibit | – | – | – | weak inhibition | little inhibition | – | decreased the GFP signal | – |
| CC(C)(C)OC(=O)NCc1cccc(N=C=S)c1 [TU50] | 80 ± 10 µM | significant inhibition | 6 to 12 µM | 9 µM | large increase in both apoptosis and necrosis | – | susceptible | no apoptosis was detected | did not inhibit | – | strongly inhibited | oblation of the fluorescent signal | weak inhibition | little inhibition | clearly the most affected | decreased the GFP signal | selective lethality against leukemic cell lines |
